Test results taken from patent US20060198882A1, “Stable liposomes or micelles comprising a sphinolipid and a peg-lipopolymer” (priority 2003, published 2006).

How the values were obtained:
[1] = Critical aggregation concentration (CAC) by surface tension; format: physicochemical; settings: pure water containing 0.3% ethanol, room temperature
Description: The critical aggregation concentration (CAC) of the ceramides is the concentration at which aggregation of monomers to an amphiphile assembly occurs. CAC of the C2, C6, and C16 ceramides was determined in filtered pure water containing 0.3% ethanol by measuring at room temperature surface tension as a function of ceramide concentration. The measurements were done using μThrougs Kibron System (Helsinki, Finland) which determine the surface tension at the air/water interface. The measurement at each concentration was repeated until a constant value of surface tension was reached [Zuidam, N. and Barenholz, Y., Supra (1997)]

[2] = Conversion of C6Cer in cell derived or fresh medium; format: in vitro ADME

SMILES	CAC (critical aggregation concentration) [1]	ceramide converted into C6 SPM ([2]; cell derived medium (taken from C26 cells)) [%]	metabolic activity ([2]; fresh medium)
CCCCCCCCCCCCC/C=C/[C@@H](O)[C@H](CO)NC(C)=O [C2Cer, N-Acetyl-D-erythro-sphingosine]	10^−6M		
CCCCCCCCCCCCC/C=C/[C@@H](O)[C@H](CO)NC(=O)CCCCC [C6Cer, N-hexanoyl-D-erythro-sphingosine]		9	no metabolitic activity
